Experimental data reported in patent US4007196A, “4-Phenylpiperidine compounds” (priority 1973, dated 1977).
Structures can show the parent of a compound that is named as a salt. Where two headings read alike, the source gives them in different places.

Assays:
Acute toxicity in mice = settings: mouse, in vivo
[1] = Antidepressant daily dose; type: in vivo; settings: daily doses
Procedure: In comparison, daily doses of 200-300 mg of imipramine are recommended.

cardiovascular system = test: Effect on the cardiovascular system (side-effects); type: in vivo; settings: comparison in words
Excerpt: Known tricyclic thymoleptics affect the cardiovascular and peripheral autonomic nervous systems causing a wide range of side-effects. Cardiac disturbances and varying degrees of hypotension occur rather frequently and may be very serious.

5HT-uptake = test: Antagonism of p-chloroamphetamine (PCA)-induced 5HT-depletion from rat brain (5HT-uptake inhibitory activity); type: in vivo; settings: for ED50: rat brain
Excerpt: 5HT-uptake inhibitory activity
Antagonism of p-chloroamphetamine (PCA)-induced 5HT-depletion from rat brain: […]

[2] = daily doses; cited from earlier work

Row | SMILES | LD50 (Acute toxicity in mice; oral administration) [mg/kg] | LD50 (Acute toxicity in mice; sc, subcutaneous injection) [mg/kg] | daily dose active as an antidepressant [1] [mg] | effect on the cardiovascular system compared with tricyclic thymoleptics (cardiovascular system) | ED50 p.o., antagonism of PCA-induced 5HT-depletion (5HT-uptake; po, 3 h) | ED50 (5HT-uptake; po, p.o., test drugs administered 2 hours before PCA, read-out: ED50 p.o., antagonism of PCA-induced 5HT-depletion) [mg/kg] | ED50 (5HT-uptake; sc, test drugs administered s.c. simultaneously with PCA, read-out: ED50 s.c., antagonism of PCA-induced 5HT-depletion) [mg/kg] | recommended daily dose [2] [mg]
1 | Fc1ccc(C2CCNCC2COc2ccc3c(c2)OCO3)cc1 (single isomer, unassigned) [GF 74, (-)-α-4-(4-Fluorophenyl)-3-(1,3-benzdioxolyl-(3))-oxymethyl piperidine maleate] | 500 | 845 | 15 to 25 | affect the cardiovascular system less than do the most common tricyclic thymoleptics |  |  |  | 
2 | CN(C)CCCN1c2ccccc2CCc2ccccc21 [Imipramine] |  |  |  |  | + | 44 | 8 | 200 to 300
